Where two headings read alike, the source gives them in different places.
Legend:
PI3K α = target: T1, PI3K α (Homo sapiens, UniProt P42336); experiment: In vitro PI3 kinase enzyme assay (alpha), ATP loss, bioluminescence; format: biochemical; details: read-out: PI3Kα ATP loss IC50;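 also: purified p110α/p85 heterodimer acting on PtdIns(4,5)P2 at room temperature, remaining ATP read by luminescence, inhibition scaled between compound-free wells with and without enzyme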
T1 construct: Full length p110 subunits of PI3K α, β and δ, N-terminally labeled with polyHis tag; polyHis (N); made in house; host or cells: Sf9 insect cells (baculovirus)
Procedure: Full length p110 subunits of PI3K α, β and δ, N-terminally labeled with polyHis tag, were co-expressed with p85 in baculovirus expression vectors in sf9 insect cells. P110/p85 heterodimers were purified by sequential Ni-NTA, Q-HP, and Superdex-100 chromatography. Purified α, β and δ isozymes were stored at −20° C. in 20 mM Tris, pH 8, 0.2M NaCl, 50% glycerol, 5 mM DTT, 2 mM Na cholate.
PI3K enzyme assays (alpha, beta, delta and gamma) were performed in 25 mL with the above final concentrations of components in white polypropylene plates (Costar catalogue #3355). Phosphatidyl inositol phosphoacceptor, PtdIns(4,5)P2 (eg. P4508) was obtained from Echelon Biosciences. The ATPase activity of the alpha and gamma isozymes was not greatly stimulated by PtdIns(4,5)P2 under these conditions and was therefore omitted from the assay of these isozymes. Test compounds were dissolved in DMSO and diluted with three-fold serial dilutions. The compound in DMSO (1 μL) was added per test well, and the inhibition relative to reactions containing no compound, with and without enzyme was determined. After assay incubation at RT, the reaction was stopped and residual ATP determined by addition of an equal volume of a commercial ATP bioluminescence kit (Perkin Elmer EasyLite) according to the manufacturer's instructions, and detected using an Analyst GT luminometer.

[1] = test system: phosphorylation of Serine 473 in Akt, HCT 116 human colon carcinoma cells; experiment: Cell-based phospho-AKT Ser473 assay (MSD sandwich immunoassay, IGF-1 stimulated); details: Homo sapiens
Procedure: This assay determines the ability of test compounds to inhibit the phosphorylation of […] in Akt using a MSD based sandwich immunoassay (Meso Scale Detection, catalogue # N411CAB-1). […] Prior to the assay cells were detached from the culture flask with trypsin, and re-suspended in complete media to give a final concentration of 1.6×10^5 cells per ml. Aliquots (100 μl) of the HCT116 cell suspension were seeded into each well of a 96 well tissue culture plate (Corning Incorporated COSTAR, catalogue#3595) to give a final density of 16,000 cells per well. Cells were then incubated overnight at 37° C. The following day the cells were treated with serially diluted test compounds and incubated for 2 hours at 37° C. […] As a maximum response control, wells contained 0.5% DMSO in place of test compound. The plates were mixed at 700 rpm for 2 min to ensure even distribution of the test compound and incubated for 2 hours at 37° C. Cells were then stimulated with insulin-like growth factor 1 (Sigma, product #13769) at final concentration of 100 ng/ml for 15 minutes at 37° C. The media was then removed and the cells treated with 80 μl cell-lysis buffer (MSD) containing a cocktail of protease and phosphatase inhibitors for one hour at 4° C. […] The detection antibody was removed and plates were then washed four times with 200 μl per well of Tris wash buffer. An aliquot of 150 μl of diluted MSD read buffer was then applied to each well, and the electrochemiluminescent signal was measured using a MSD SECTORTM plate reader. This instrument measures the intensity of emitted light to determine a quantitative measure of phosphorylated Akt in each well. The dose-response data obtained with each compound were analyzed and the IC50 inhibition of Akt phosphorylation at Ser473 calculated.

PI3K β = target: T2, PI3K β (Homo sapiens, UniProt P42338); experiment: In vitro PI3 kinase enzyme assay (beta), ATP loss, bioluminescence; format: biochemical; details: read-out: PI3Kβ ATP loss IC50;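 also: purified p110β/p85 heterodimer with PtdIns(4,5)P2 as acceptor, incubated at room temperature, leftover ATP read by luminescence, inhibition scaled to compound-free wells with and without enzyme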
T2 construct: Full length p110 subunits of PI3K α, β and δ, N-terminally labeled with polyHis tag; polyHis (N); made in house; host or cells: Sf9 insect cells (baculovirus)

[2] = HCT-116, HCT 116 cells, read-out: HCT 116 pAKT IC50

T1 sequence (P42336 whole entry, species assumed): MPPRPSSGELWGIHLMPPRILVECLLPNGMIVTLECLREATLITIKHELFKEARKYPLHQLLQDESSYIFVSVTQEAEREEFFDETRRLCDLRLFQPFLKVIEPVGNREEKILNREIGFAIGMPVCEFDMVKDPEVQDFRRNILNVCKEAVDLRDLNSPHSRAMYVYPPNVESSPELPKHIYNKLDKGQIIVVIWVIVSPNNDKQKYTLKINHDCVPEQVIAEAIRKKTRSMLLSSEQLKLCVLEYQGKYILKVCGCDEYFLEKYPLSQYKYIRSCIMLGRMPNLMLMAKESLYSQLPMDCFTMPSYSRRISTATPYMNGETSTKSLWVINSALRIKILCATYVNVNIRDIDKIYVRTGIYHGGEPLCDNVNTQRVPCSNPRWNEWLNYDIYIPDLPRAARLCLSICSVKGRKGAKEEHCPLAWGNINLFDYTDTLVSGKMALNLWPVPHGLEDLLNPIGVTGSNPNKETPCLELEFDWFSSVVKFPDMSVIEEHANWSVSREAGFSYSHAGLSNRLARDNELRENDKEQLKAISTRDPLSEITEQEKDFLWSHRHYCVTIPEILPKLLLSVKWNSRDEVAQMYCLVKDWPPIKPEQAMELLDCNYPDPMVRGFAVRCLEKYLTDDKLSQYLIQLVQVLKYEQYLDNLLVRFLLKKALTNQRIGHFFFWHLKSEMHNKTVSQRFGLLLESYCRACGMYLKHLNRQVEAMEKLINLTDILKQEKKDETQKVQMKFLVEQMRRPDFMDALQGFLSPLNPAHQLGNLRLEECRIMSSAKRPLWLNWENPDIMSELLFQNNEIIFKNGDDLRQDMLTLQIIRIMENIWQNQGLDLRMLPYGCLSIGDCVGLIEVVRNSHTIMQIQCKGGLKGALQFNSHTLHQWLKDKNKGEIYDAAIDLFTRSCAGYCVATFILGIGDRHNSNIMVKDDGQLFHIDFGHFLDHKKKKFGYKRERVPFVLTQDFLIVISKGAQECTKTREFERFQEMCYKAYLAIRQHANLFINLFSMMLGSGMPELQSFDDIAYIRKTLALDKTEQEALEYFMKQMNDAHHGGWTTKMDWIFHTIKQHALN
T1 sequence (P27986 whole entry partner, species assumed): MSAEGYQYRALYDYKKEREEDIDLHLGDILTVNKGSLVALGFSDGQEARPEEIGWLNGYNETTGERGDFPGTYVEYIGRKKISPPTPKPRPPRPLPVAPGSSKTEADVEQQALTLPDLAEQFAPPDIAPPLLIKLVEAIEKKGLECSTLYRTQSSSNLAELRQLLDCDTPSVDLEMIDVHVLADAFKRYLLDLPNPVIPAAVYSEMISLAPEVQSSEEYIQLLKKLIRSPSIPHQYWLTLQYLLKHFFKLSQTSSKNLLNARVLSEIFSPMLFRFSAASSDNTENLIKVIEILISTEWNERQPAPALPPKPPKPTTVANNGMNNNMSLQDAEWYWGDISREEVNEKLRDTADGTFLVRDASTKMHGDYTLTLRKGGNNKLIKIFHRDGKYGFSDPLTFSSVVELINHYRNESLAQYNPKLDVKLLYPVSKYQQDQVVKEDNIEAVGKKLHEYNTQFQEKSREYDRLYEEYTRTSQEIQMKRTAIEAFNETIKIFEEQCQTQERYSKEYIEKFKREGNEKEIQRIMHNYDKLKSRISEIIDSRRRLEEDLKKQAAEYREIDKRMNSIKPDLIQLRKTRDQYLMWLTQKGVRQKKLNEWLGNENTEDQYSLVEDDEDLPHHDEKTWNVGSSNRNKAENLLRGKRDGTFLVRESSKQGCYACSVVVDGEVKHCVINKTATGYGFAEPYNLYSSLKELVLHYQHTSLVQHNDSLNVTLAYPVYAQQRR
T2 sequence (P42338 whole entry): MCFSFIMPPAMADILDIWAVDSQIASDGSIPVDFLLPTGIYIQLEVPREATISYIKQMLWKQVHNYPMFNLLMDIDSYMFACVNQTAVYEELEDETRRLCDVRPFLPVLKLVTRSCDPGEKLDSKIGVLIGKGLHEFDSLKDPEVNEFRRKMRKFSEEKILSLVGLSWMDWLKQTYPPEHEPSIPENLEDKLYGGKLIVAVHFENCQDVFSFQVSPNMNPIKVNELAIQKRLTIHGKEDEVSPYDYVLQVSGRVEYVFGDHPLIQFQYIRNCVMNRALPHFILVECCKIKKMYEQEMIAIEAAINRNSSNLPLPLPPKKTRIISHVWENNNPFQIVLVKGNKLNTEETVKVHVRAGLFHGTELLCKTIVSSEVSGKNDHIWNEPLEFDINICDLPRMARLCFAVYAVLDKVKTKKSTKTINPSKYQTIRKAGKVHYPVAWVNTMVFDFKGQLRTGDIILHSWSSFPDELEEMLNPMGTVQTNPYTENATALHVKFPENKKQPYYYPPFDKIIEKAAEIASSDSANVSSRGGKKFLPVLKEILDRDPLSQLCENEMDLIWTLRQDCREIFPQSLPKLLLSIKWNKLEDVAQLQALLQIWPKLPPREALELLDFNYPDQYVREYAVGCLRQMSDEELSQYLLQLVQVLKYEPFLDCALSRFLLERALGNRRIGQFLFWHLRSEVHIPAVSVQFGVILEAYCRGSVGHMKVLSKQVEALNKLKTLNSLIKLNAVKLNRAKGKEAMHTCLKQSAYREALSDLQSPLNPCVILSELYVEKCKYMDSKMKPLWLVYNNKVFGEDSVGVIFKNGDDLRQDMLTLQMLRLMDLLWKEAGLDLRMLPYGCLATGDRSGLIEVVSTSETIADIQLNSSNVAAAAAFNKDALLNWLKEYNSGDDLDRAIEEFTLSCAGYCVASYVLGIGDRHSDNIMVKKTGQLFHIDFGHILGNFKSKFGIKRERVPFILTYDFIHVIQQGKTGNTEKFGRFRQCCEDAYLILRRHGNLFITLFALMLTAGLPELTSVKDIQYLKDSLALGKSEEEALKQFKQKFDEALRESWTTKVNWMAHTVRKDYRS
T2 sequence (P27986 whole entry partner): as the sequence (P27986 whole entry partner, species assumed) above

IC50 (PI3K α)	IC50 [1, 2]	IC50 (PI3K β)	SMILES	IC50 ([1]; HCT-116, read-out: HCT 116 pAKT IC50)
418 nM	15300 nM	1450 nM	CC(=O)Nc1nc2ccc(-c3ccnc(NCc4ccccc4)n3)cc2s1 [Example 49, N-(6-(2-(benzylamino)-4-pyrimidinyl)-1,3-benzothiazol-2-yl)acetamide]	–
505 nM	952 nM	> 40000 nM	COc1nccc(-c2ccc3nc(NC(C)=O)sc3c2)n1 [Example 51, N-(6-(2-methoxy-4-pyrimidinyl)-1,3-benzothiazol-2-yl)acetamide]	–
254 nM	> 5000 nM	402 nM	CNC(=O)Nc1nc2ccc(-c3ccnc(OCc4ccccc4)n3)cc2s1 [Example 56, 1-(6-(2-(benzyloxy)-4-pyrimidinyl)-1,3-benzothiazol-2-yl)-3-methylurea]	–
29.9 nM	2580 nM	5210 nM	COc1ccc(Sc2ncc(-c3ccc4nc(NC(C)=O)sc4c3)s2)cc1 [Example 62, N-(6-(2-(4-methoxyphenylthio)thiazol-5-yl)benzo[d]thiazol-2-yl)acetamide]	–
258 nM	2020 nM	5610 nM	CC(=O)Nc1nc2ccc(-c3cccc(S(=O)(=O)c4ccc(F)cc4)n3)cc2s1 [Example 66, N-(6-(6-(4-Fluorophenylsulfonyl)pyridin-2-yl)benzo[d]thiazol-2-yl)acetamide]	–
86.5 nM	664 nM	676 nM	COc1ccc(S(=O)(=O)c2cccc(-c3ccc4nc(NC(C)=O)sc4c3)n2)cc1 [Example 68, N-(6-(6-(4-Methoxyphenylsulfonyl)pyridin-2-yl)benzo[d]thiazol-2-yl)acetamide]	–
46.5 nM	296 nM	284 nM	COc1cccc(S(=O)(=O)c2cccc(-c3ccc4nc(NC(C)=O)sc4c3)n2)c1 [Example 69, N-(6-(6-((3-methoxyphenyl)sulfonyl)-2-pyridinyl)-1,3-benzothiazol-2-yl)acetamide]	–
60.6 nM	320 nM	149 nM	CC(=O)Nc1nc2ccc(-c3cccc(NS(=O)(=O)c4ccccc4F)n3)cc2s1 [Example 73, N-(6-(6-(2-Fluorophenylsulfonamido)pyridin-2-yl)benzo[d]thiazol-2-yl)acetamide]	–
82.5 nM	221 nM	338 nM	CC(=O)Nc1nc2ccc(-c3cccc(N(C)S(=O)(=O)c4ccccc4)n3)cc2s1 [Example 75, N-(6-(6-(methyl(phenylsulfonyl)amino)-2-pyridinyl)-1,3-benzothiazol-2-yl)acetamide]	–
34.3 nM	408 nM	62 nM	CC(=O)Nc1nc2ccc(-c3ccnc(NS(=O)(=O)c4ccc(C)cc4)n3)cc2s1 [Example 83, N-(6-(2-(((4-methylphenyl)sulfonyl)amino)-4-pyrimidinyl)-1,3-benzothiazol-2-yl)acetamide]	–
21.8 nM	174 nM	79.3 nM	CCc1ccc(S(=O)(=O)Nc2nccc(-c3ccc4nc(NC(C)=O)sc4c3)n2)cc1 [Example 84, N-(6-(2-(((4-ethylphenyl)sulfonyl)amino)-4-pyrimidinyl)-1,3-benzothiazol-2-yl)acetamide]	–
20.1 nM	917 nM	82.6 nM	COc1cccc(S(=O)(=O)Nc2nccc(-c3ccc4nc(NC(C)=O)sc4c3)n2)c1 [Example 85, N-(6-(2-(((3-methoxyphenyl)sulfonyl)amino)-4-pyrimidinyl)-1,3-benzothiazol-2-yl)acetamide]	–
39.3 nM	68.8 nM	79.1 nM	COc1ccc(S(=O)(=O)N(C)c2nccc(-c3ccc4nc(NC(C)=O)sc4c3)n2)cc1 [Example 88, N-(6-(2-(4-Methoxy-N-methylphenylsulfonamido)pyrimidin-4-yl)benzo[d]thiazol-2-yl)acetamide]	–
181 nM	310 nM	237 nM	CC(=O)Nc1nc2ccc(-c3ccnc(N(C)S(=O)(=O)c4ccccc4)n3)cc2s1 [Example 91, N-(6-(2-(methyl(phenylsulfonyl)amino)-4-pyrimidinyl)-1,3-benzothiazol-2-yl)acetamide]	–
102 nM	218 nM	174 nM	CC(=O)Nc1nc2ccc(-c3ccnc(N(C)S(=O)(=O)c4cccc(C)c4)n3)cc2s1 [Example 93, N-(6-(2-(N,3-Dimethylphenylsulfonamido)pyrimidin-4-yl)benzo[d]thiazol-2-yl)acetamide]	–
220 nM	2530 nM	1240 nM	CC(=O)Nc1nc2ccc(-c3ccnc(OCc4ccc(C)cc4)n3)cc2s1 [Example 106, N-(6-(2-((4-methylbenzyl)oxy)-4-pyrimidinyl)-1,3-benzothiazol-2-yl)acetamide]	–
181 nM	1210 nM	836 nM	CC(=O)Nc1nc2ccc(-c3ccnc(OCc4cccc(C)c4)n3)cc2s1 [Example 107, N-(6-(2-((3-methylbenzyl)oxy)-4-pyrimidinyl)-1,3-benzothiazol-2-yl)acetamide]	–
96.7 nM	682 nM	292 nM	COc1cccc(COc2nccc(-c3ccc4nc(NC(C)=O)sc4c3)n2)c1 [Example 108, N-(6-(2-((3-methoxybenzyl)oxy)-4-pyrimidinyl)-1,3-benzothiazol-2-yl)acetamide]	–
3.8 nM	31.4 nM	10.6 nM	CC(=O)Nc1nc2ccc(-c3cnc(C)c(NS(=O)(=O)c4ccccc4)c3)cc2s1 [Example 110, N-(6-(6-methyl-5-(phenylsulfonamido)pyridin-3-yl)benzo[d]thiazol-2-yl)acetamide]	–
4.1 nM	25.5 nM	13.1 nM	CC(=O)Nc1nc2ccc(-c3cnc(C)c(NS(=O)(=O)c4ccc(F)cc4)c3)cc2s1 [Example 111, N-(6-(5-(((4-fluorophenyl)sulfonyl)amino)-6-methyl-3-pyridinyl)-1,3-benzothiazol-2-yl)acetamide]	–
5.5 nM	16.9 nM	9.1 nM	CC(=O)Nc1nc2ccc(-c3cnc(C)c(NS(=O)(=O)c4ccccc4F)c3)cc2s1 [Example 112, N-(6-(5-(((2-fluorophenyl)sulfonyl)amino)-6-methyl-3-pyridinyl)-1,3-benzothiazol-2-yl)acetamide]	–
6.4 nM	6.7 nM	13 nM	CC(=O)Nc1nc2ccc(-c3cnc(C)c(NS(=O)(=O)c4cccc(C(F)(F)F)c4)c3)cc2s1 [Example 113, N-(6-(6-methyl-5-(((3-(trifluoromethyl)phenyl)sulfonyl)amino)-3-pyridinyl)-1,3-benzothiazol-2-yl)acetamide]	–
7 nM	14.4 nM	8.9 nM	CC(=O)Nc1nc2ccc(-c3cnc(C)c(NS(=O)(=O)c4ccc(C(C)(C)C)cc4)c3)cc2s1 [Example 114, N-(6-(5-(((4-tert-butylphenyl)sulfonyl)amino)-6-methyl-3-pyridinyl)-1,3-benzothiazol-2-yl)acetamide]	–
7.1 nM	30.7 nM	15 nM	CC(=O)Nc1nc2ccc(-c3cnc(C)c(NS(=O)(=O)c4cccc(OC(F)F)c4)c3)cc2s1 [Example 115, N-(6-(5-(((3-(difluoromethoxy)phenyl)sulfonyl)amino)-6-methyl-3-pyridinyl)-1,3-benzothiazol-2-yl)acetamide]	–
12.3 nM	34.5 nM	13.5 nM	CC(=O)Nc1nc2ccc(-c3cnc(Cl)c(NS(=O)(=O)c4ccc(C(C)=O)cc4)c3)cc2s1 [Example 119, N-(6-(5-(((4-acetylphenyl)sulfonyl)amino)-6-chloro-3-pyridinyl)-1,3-benzothiazol-2-yl)acetamide]	–
16.4 nM	332 nM	1070 nM	COc1ccc(S(=O)(=O)c2cncc(-c3ccc4nc(NC(C)=O)sc4c3)n2)cc1 [Example 120, N-(6-(6-((4-methoxyphenyl)sulfonyl)-2-pyrazinyl)-1,3-benzothiazol-2-yl)acetamide]	–

SMILES	IC50 (PI3K α)	IC50 [1, 2]	IC50 (PI3K β)	IC50 ([1]; HCT-116, read-out: HCT 116 pAKT IC50)
CC(=O)Nc1nc2ccc(-c3ccnc(NS(=O)(=O)c4ccccc4)n3)cc2s1 [Example 77, N-(6-(2-(Phenylsulfonamido)pyrimidin-4-yl)benzo[d]thiazol-2-yl)acetamide]	84.8 nM	2350 nM	543 nM	–
CC(=O)Nc1nc2c(F)cc(-c3cncc(NS(=O)(=O)c4ccc(C(F)(F)F)cc4)c3)cc2s1 [Example 117, N-(4-fluoro-6-(5-(4-(trifluoromethyl)phenylsulfonamido)pyridin-3-yl)benzo[d]thiazol-2-yl)acetamide]	7.7 nM	–	55.8 nM	301 nM

From patent US7928140B2, “Benzothiazole PI3 kinase modulators for cancer treatment” (Amgen Inc., priority 2007, dated 2011)
